In the supplement of paper PMC10307832:

Key:
Assay in all cases: relative viability (nuclei count vs DMSO), 5 days (fraction); higher = more cells survive
[1] = compound: CC1(COc2ccc3c(c2)ncn3-c2ccc3cccc(N4CCC(N)CC4)c3n2)COC1 [Crenolanib] + CS(=O)(=O)N1CCN(Cc2cc3nc(-c4cccc5[nH]ncc45)nc(N4CCOCC4)c3s2)CC1 [Pictilisib] (partner 1 µM)
How it was run: (§1)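 For relative viability, nuclei counts in treated wells were divided by those in vehicle wells. Lung cancer cell lines had been pin-tool dosed in 1536-well plates the day after seeding and cultured for 5 days, then fixed and stained in one step (final 0.05% Triton X-100, 1% formaldehyde, 1 ug/ml Hoechst) and imaged at 4×. Doses were one drug alone or a fixed anchor-drug dose plus five library-drug doses (not always all listed) in √10 steps, and values are duplicate-plate medians.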

[2] = compound: CC1(COc2ccc3c(c2)ncn3-c2ccc3cccc(N4CCC(N)CC4)c3n2)COC1 [Crenolanib] + Nc1ncn([C@H]2C[C@H](O)[C@@H](CO)O2)c(=O)n1 [Decitabine] (partner 2 µM)
How it was run: as §1

[3] = compound: O=C1NC(=O)[C@@H](c2cn3c4c(cccc24)CCC3)[C@@H]1c1c[nH]c2ccccc12 [Tivantinib] + CC(=O)Nc1cccc(-n2c(=O)n(C3CC3)c(=O)c3c(Nc4ccc(I)cc4F)n(C)c(=O)c(C)c32)c1 [Trametinib] (partner 0.02 µM)
How it was run: as §1

[4] = compound: O=C1NC(=O)[C@@H](c2cn3c4c(cccc24)CCC3)[C@@H]1c1c[nH]c2ccccc12 [Tivantinib] + NC(=O)Nc1cc(-c2cccc(F)c2)sc1C(=O)N[C@H]1CCCNC1 [AZD7762] (partner 0.2 µM)
How it was run: as §1

Cell Line | relative viability ([1]; first compound 0.01 µM) | relative viability ([1]; first compound 0.03162 µM) | relative viability ([1]; first compound 0.1 µM) | relative viability ([1]; first compound 0.3162 µM) | relative viability ([1]; first compound 1 µM) | relative viability ([2]; first compound 0.01 µM) | relative viability ([2]; first compound 0.03162 µM) | relative viability ([2]; first compound 0.1 µM) | relative viability ([2]; first compound 0.3162 µM) | relative viability ([2]; first compound 1 µM) | relative viability ([3]; first compound 0.01 µM) | relative viability ([3]; first compound 0.03162 µM) | relative viability ([3]; first compound 0.1 µM) | relative viability ([3]; first compound 0.3162 µM) | relative viability ([4]; first compound 0.01 µM) | relative viability ([4]; first compound 0.03162 µM) | relative viability ([4]; first compound 0.1 µM) | relative viability ([4]; first compound 0.3162 µM)
LXF-289 | 0.761 | 0.666 | 0.733 | 0.916 | 0.755 | 0.402 | 0.349 | 0.408 | 0.388 | 0.413 | 0.628 | 0.631 | 0.628 | 0.669 | 1.14 | 1.13 | 1.07 | 1.08
NCI-H23 | 0.482 | 0.484 | 0.399 | 0.487 | 0.351 | 0.288 | 0.359 | 0.347 | 0.353 | 0.321 | 0.509 | 0.352 | 0.37 | 0.347 | 0.283 | 0.23 | 0.319 | 0.336
NCI-H322M | 0.519 | 0.499 | 0.527 | 0.517 | 0.493 | 0.863 | 0.748 | 0.663 | 0.73 | 0.71 | 0.486 | 0.471 | 0.449 |  | 0.613 | 0.419 | 0.571 | 
NCI-H358 | 0.4 | 0.309 | 0.332 | 0.326 | 0.311 | 0.17 | 0.194 | 0.233 | 0.21 | 0.188 | 0.127 | 0.124 | 0.147 | 0.128 | 0.443 | 0.576 | 0.497 | 0.279
NCI-H441 | 0.497 | 0.502 | 0.483 | 0.527 | 0.56 | 0.259 | 0.276 | 0.277 | 0.251 | 0.243 | 0.476 | 0.405 | 0.448 | 0.352 | 1.04 | 1.22 | 1.11 | 1.03
NCI-H460 | 0.379 | 0.306 | 0.316 | 0.363 | 0.308 | 0.261 | 0.475 | 0.442 | 0.682 | 0.555 | 0.172 | 0.114 | 0.286 | 0.169 | 0.513 | 0.739 | 0.517 | 0.64
NCI-H596 | 0.351 | 0.398 | 0.342 | 0.353 | 0.397 | 1.09 | 0.991 | 0.933 | 1.05 | 1.03 | 0.897 | 0.839 | 0.774 | 0.678 | 0.994 | 0.975 | 1.09 | 1.38
NCI-H647 | 0.448 | 0.314 | 0.412 | 0.423 | 0.454 | 0.376 | 0.401 | 0.362 | 0.502 | 0.346 | 0.462 | 0.411 | 0.416 | 0.369 | 0.509 | 0.314 | 0.445 | 0.585
NCI-H650 | 0.9 | 0.806 | 0.901 | 0.801 | 0.83 | 0.295 | 0.306 | 0.281 | 0.295 | 0.33 | 0.936 | 0.787 | 0.899 | 0.945 | 1.17 | 0.818 | 1 | 1.21
NCI-H727 | 0.491 | 0.634 | 0.342 | 0.473 | 0.418 | 0.872 | 0.851 | 0.877 | 0.997 | 0.904 | 0.413 | 0.343 | 0.398 |  | 0.535 | 0.421 | 0.551 | 
NCI-H838 | 0.492 | 0.499 | 0.418 | 0.418 | 0.381 | 0.482 | 0.463 | 0.45 | 0.466 | 0.418 | 0.542 | 0.501 | 0.469 | 0.527 | 1 | 0.973 | 0.872 | 0.906
NCI-H1355 | 0.459 | 0.48 | 0.436 | 0.402 | 0.389 | 0.374 | 0.335 | 0.303 | 0.407 | 0.328 | 0.476 | 0.412 | 0.469 | 0.367 | 0.756 | 0.819 | 0.794 | 0.637
NCI-H1395 | 0.655 | 0.562 | 0.708 | 0.789 | 0.553 | 0.754 | 0.674 | 0.739 | 0.695 | 0.669 | 0.987 | 1.11 | 1.02 | 0.83 | 0.406 | 0.405 | 0.395 | 0.371
NCI-H1437 | 0.548 | 0.517 | 0.549 | 0.495 | 0.571 | 0.634 | 0.551 | 0.527 | 0.562 | 0.512 | 0.637 | 0.464 | 0.441 | 0.514 | 1.22 | 1.16 | 1.11 | 0.96
NCI-H1651 | 0.568 | 0.511 | 0.52 | 0.548 | 0.502 | 0.678 | 0.583 | 0.592 | 0.589 | 0.638 | 0.801 | 0.798 | 0.825 | 0.787 | 0.452 | 0.404 | 0.437 | 0.353
NCI-H1666 | 0.605 | 0.352 | 0.401 | 0.406 | 0.411 | 0.757 | 0.576 | 0.663 | 0.692 | 0.806 | 0.815 | 0.786 | 0.827 | 0.814 | 0.904 | 0.841 | 0.835 | 0.705
